Tests used:
Assay type in all cases: cell-based
[1] = molecular target: T1, mouse SMO^WT (Mus musculus, UniProt P56726); assay: Mouse assay: Gli1 qPCR in MEF cells stably expressing mouse SMO WT; conditions: mSHh-treated, 24 hours; for IC50: Gli1 inhibition by qPCR, read-out: Mouse WT pIC50 (converted); for Mouse WT % Inh: percentage Gli1 inhibition
T1 construct: expressed in transfected cells
Summary of the method: (§1)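 MEFs stably expressing the SMO variant pre-treated with compound 1 h, then stimulated with mSHh and incubated 24 h at 37 °C. Gli1 mRNA quantified by one-step TaqMan qPCR with Gusb reference, four replicates per concentration; expressed as % Gli1 inhibition relative to mSHh-treated controls.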

[2] = molecular target: T2, mouse SMO^D473H (Mus musculus, UniProt P56726, D477H); assay: Mouse assay: Gli1 qPCR in MEF cells stably expressing mouse SMO D473H; conditions: mSHh-treated, 24 hours; for IC50: Gli1 inhibition by qPCR, read-out: Mouse D473H pIC50 (converted); for Mouse D473H % Inh: percentage Gli1 inhibition
T2 construct: expressed in transfected cells
T2 sequence (P56726 33-793 D477H): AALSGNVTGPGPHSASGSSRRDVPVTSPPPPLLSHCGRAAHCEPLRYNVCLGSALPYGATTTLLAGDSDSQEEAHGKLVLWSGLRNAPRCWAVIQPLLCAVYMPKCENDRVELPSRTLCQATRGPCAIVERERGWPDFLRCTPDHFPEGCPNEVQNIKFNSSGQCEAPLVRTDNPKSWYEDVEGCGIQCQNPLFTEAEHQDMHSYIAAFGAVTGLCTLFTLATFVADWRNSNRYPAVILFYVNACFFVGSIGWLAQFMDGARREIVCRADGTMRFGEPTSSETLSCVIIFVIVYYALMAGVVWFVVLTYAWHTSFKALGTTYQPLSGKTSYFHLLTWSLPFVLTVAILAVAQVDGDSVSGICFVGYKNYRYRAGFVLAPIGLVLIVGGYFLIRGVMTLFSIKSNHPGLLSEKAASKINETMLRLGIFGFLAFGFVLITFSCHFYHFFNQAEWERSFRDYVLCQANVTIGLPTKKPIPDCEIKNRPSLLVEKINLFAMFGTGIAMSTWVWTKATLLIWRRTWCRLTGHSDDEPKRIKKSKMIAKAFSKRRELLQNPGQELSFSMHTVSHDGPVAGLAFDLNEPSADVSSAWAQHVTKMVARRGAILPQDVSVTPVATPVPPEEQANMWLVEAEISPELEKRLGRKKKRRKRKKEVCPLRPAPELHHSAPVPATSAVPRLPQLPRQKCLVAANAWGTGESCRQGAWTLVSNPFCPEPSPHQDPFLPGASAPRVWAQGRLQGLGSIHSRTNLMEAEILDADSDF
Summary of the method: as §1

[3] = molecular target: T3, mouse SMO^W535L (Mus musculus, UniProt P56726, W539L); assay: Mouse assay: Gli1 qPCR in MEF cells stably expressing mouse SMO W535L; conditions: mSHh-treated, 24 hours; for IC50: Gli1 inhibition by qPCR, read-out: Mouse W535L pIC50 (converted); for Mouse W535L % Inh: percentage Gli1 inhibition
T3 construct: expressed in transfected cells
T3 sequence (P56726 33-793 W539L): as the sequence (P56726 33-793 D477H) above, with H445D, W507L counted along it
Summary of the method: as §1

[4] = molecular target: T4, hSMO WT (Homo sapiens, UniProt Q99835); assay: Human assay: Gli1 qPCR in MEF SMO-/- cells BacMam-transduced with hSMO WT; conditions: mSHh-treated, 24 hours; for IC50: Gli1 inhibition by qPCR, read-out: Human WT pIC50 (converted); for Human WT % Inh: percentage Gli1 inhibition
T4 construct: expressed in transfected cells; host or cells: SMO knock-out mouse embryonic fibroblasts (MEF SMO-/-), BacMam transduction
T4 sequence (Q99835 28-787): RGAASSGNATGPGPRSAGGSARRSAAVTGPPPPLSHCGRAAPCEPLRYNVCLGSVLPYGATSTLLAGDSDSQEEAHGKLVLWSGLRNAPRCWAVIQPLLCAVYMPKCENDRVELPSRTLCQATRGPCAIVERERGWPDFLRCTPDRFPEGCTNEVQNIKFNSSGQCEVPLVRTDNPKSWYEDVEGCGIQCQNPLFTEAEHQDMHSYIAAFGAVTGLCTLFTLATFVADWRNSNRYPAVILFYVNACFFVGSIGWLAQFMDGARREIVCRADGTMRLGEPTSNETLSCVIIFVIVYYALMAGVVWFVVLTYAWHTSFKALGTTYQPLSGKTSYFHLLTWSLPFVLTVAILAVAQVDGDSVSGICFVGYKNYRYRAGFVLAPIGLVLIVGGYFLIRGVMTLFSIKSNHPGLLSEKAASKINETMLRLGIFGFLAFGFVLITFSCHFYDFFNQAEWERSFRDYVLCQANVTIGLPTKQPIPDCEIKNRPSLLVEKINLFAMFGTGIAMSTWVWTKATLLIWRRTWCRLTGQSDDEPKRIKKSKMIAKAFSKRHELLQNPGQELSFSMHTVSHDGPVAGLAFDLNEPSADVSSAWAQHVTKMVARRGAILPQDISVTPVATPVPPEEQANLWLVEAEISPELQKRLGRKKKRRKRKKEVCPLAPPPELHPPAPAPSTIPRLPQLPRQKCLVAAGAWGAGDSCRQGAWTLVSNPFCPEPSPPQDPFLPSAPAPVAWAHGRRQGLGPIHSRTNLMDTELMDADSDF
Method: (§2) Cell culture. All materials were purchased from Sigma-Aldrich, unless otherwise stated. SMO knock-out mouse embryonic fibroblasts (MEF^SMO−/−) were maintained in Dulbecco's modified Eagle's medium (DMEM)/high-glucose medium supplemented with 10% foetal bovine serum (FBS, Invitrogen), 50 U/mL penicillin and 5 mg/mL streptomycin (supplied as a mixture), 0.1 mMMEM Non-Essential Amino Acids (supplied as 100× solution, ThermoFisher) and 1 mM sodium pyruvate at 37° C. in a humidified 95% air/5% CO2 atmosphere.
(§3) BacMam transduction and compound treatment. MEF^SMO−/− cells were transduced with BacMam virus (MOI 1:10 in the presence of 4.2 mM valproic acid) containing either the hSMO WT or desired receptor variant sequence. Transduced cells were seeded at 6000 cells per well in a Poly-D-Lysine coated 384-well plate (Greiner) before the spent culture medium was removed on the following day and replaced with assay medium (OptiMEM (Gibco) supplemented with 50 U/mL penicillin and 5 mg/mL streptomycin (supplied as a mixture), 0.1 mMMEM Non-Essential Amino Acids (supplied as 100× solution, ThermoFisher), 1 mM sodium pyruvate and 10 mM HEPES) containing test compounds at 2.5× final assay concentrations. After 1 hour incubation, cells were treated with assay medium containing mSHh prepared at 2.5× of final assay concentrations specified in the text and incubated for a further 24 hours at 37° C. in a humidified 95% air/5% ° C.2 atmosphere prior to qPCR analysis.
(§4) Cell lysis and one-step qPCR. The Cells-to-CT™ 1-Step TaqMan® Kit was used in conjunction with TaqMan primer-probe assays for the detection of Gill (FAM, Mm00494654_m1) and Gusb (VIC, Mm01197698_m1) genes (all purchased from Life Technologies). Following 24 hours cell treatment, spent medium was removed and cells were washed with PBS before the application of lysis and stop solution as per manufacturer's instructions. The qPCR reactions were run in a 384-well PCR plate using master mix prepared according to manufacturer's instructions and cell lysate samples from treatment wells. Real-time PCR amplification was detected using the Bio-Rad CFX384 Touch PCR system. Four experimental replicates (two cell replicates and two qPCR replicates) were performed for each compound concentration tested. Real-time data were analysed using the CFX Maestro software (Bio-Rad) and obtained expression values were converted to percentage Gill inhibition by normalising to the average Gill expression of mSHh-treated control samples

[5] = molecular target: T5, human SMO D473H (Homo sapiens, UniProt Q99835, D473H); assay: Human assay: Gli1 qPCR in MEF SMO-/- cells BacMam-transduced with hSMO D473H variant; conditions: mSHh-treated, 24 hours; for IC50: Gli1 inhibition by qPCR, read-out: Human D473H pIC50 (converted); for Human D473H % Inh: percentage Gli1 inhibition
T5 construct: expressed in transfected cells; host or cells: SMO knock-out mouse embryonic fibroblasts (MEF SMO-/-), BacMam transduction
T5 sequence (Q99835 28-787 D473H): as the sequence (Q99835 28-787) above, with D446H counted along it
Method: Cell culture. All materials were purchased from Sigma-Aldrich, unless otherwise stated.
as §3, with “concentrations.” for “concentrations. After 1 hour incubation, cells were treated with assay medium containing mSHh prepared at 2.5× of final assay concentrations specified in the text and incubated for a further 24 hours at 37° C. in a humidified 95% air/5% ° C.2 atmosphere prior to qPCR analysis.”
as §4

[6] = molecular target: T6, human SMO W535L (Homo sapiens, UniProt Q99835, W535L); assay: Human assay: Gli1 qPCR in MEF SMO-/- cells BacMam-transduced with hSMO W535L variant; conditions: mSHh-treated, 24 hours; for IC50: Gli1 inhibition by qPCR, read-out: Human W535L pIC50 (converted); for Human W535L % Inh: percentage Gli1 inhibition
T6 construct: expressed in transfected cells; host or cells: SMO knock-out mouse embryonic fibroblasts (MEF SMO-/-), BacMam transduction
T6 sequence (Q99835 28-787 W535L): as the sequence (Q99835 28-787) above, with W508L counted along it
Method: as §2, §3, §4

T1 sequence (P56726 33-793): as the sequence (P56726 33-793 D477H) above, with H445D counted along it

Row | Structure (SMILES) | IC50 [1] [nM] | Mouse WT % Inh [1] [%] | IC50 [2] [nM] | Mouse D473H % Inh [2] [%] | IC50 [3] [nM] | Mouse W535L % Inh [3] [%] | IC50 [4] [nM] | Human WT % Inh [4] [%] | IC50 [5] [nM] | Human D473H % Inh [5] [%] | IC50 [6] [nM] | Human W535L % Inh [6] [%]
1 | Cc1oc(-c2ccc(NC(=O)c3ccc(F)c(CN4CCS(=O)(=O)CC4)c3)cc2)nc1C1CC1 [Example 4-3, N-[4-(4-Cyclopropyl-5-methyl-1,3-oxazol-2-yl)phenyl]-3-[(1,1-dioxo-1,4-thiazinan-4-yl)methyl]-4-fluorobenzamide] | 0.2 | 97.1 | 2 | 97.4 | 10 | 71.9 | 0.316 | 93.6 | 25.1 | 103.2 | 12.6 | 95.6
2 | Cn1nc(-c2ccc(NC(=O)c3cccc(CN4CCS(=O)(=O)CC4)c3)cn2)cc1C1CC1 [Example 5-4, N-[6-(5-Cyclopropyl-1-methylpyrazol-3-yl)pyridin-3-yl]-3-[(1,1-dioxo-1,4-thiazinan-4-yl)methyl]benzamide] | 7.94 | 97.3 | 126 | 97.0 | 251 | 66.4 |  |  | 794 | 107.7 | 39.8 | 85.9
3 | O=C(Nc1ccc(-c2nc(C3CCCC3)n[nH]2)cc1)c1cccc(CN2CCS(=O)(=O)CC2)c1 [Example 3-5, N-[4-(3-Cyclopentyl-1H-1,2,4-triazol-5-yl)phenyl]-3-[(1,1-dioxo-1,4-thiazinan-4-yl)methyl]benzamide] | 10 | 96.6 | 50.1 | 96.7 | 15.8 | 42.2 | 2 | 83.4 | 251 | 88.3 | 2.51 | 75.4
4 | O=C(Nc1ccc(-c2nc(C3CC3)n[nH]2)cc1)c1cccc(CN2CCS(=O)(=O)CC2)c1 [Example 3-3, N-[4-(3-Cyclopropyl-1H-1,2,4-triazol-5-yl)phenyl]-3-[(1,1-dioxo-1,4-thiazinan-4-yl)methyl]benzamide] | 15.8 | 96.6 | 158 | 89.9 | 158 | 61.9 | 31.6 | 85.9 | 1260 | 77.2 | 100 | 88.4
5 | O=C(Nc1ccc(-c2cc(C3CC3)n[nH]2)cc1)c1cccc(CN2CCS(=O)(=O)CC2)c1 [Example 4-19, N-[4-(5-Cyclopropyl-1H-pyrazol-3-yl)phenyl]-3-[(1,1-dioxo-1,4-thiazinan-4-yl)methyl]benzamide] | 5.01 | 96.8 | 15.8 | 97.7 | 10 | 59.5 | 3.16 | 95.4 | 100 | 107.1 | 12.6 | 86.3
6 | CC(C)c1noc(-c2ccc(NC(=O)c3cccc(CN4CCS(=O)(=O)CC4)c3)cc2)n1 [Example 4-10, 3-[(1,1-Dioxo-1,4-thiazinan-4-yl)methyl]-N-[4-(3-propan-2-yl-1,2,4-oxadiazol-5-yl)phenyl]benzamide] | 6.31 | 97.8 | 12.6 | 98.1 | 63.1 | 54.8 | 5.01 | 88.4 | 50.1 | 100.2 | 12.6 | 77.8
7 | Cc1c(-c2ccc(NC(=O)c3ccc(Cl)c(CN4CCS(=O)(=O)CC4)c3)cc2)n[nH]c1C1CC1 [Example 4-22, 4-chloro-N-[4-(5-cyclopropyl-4-methyl-1H-pyrazol-3-yl)phenyl]-3-[(1,1-dioxo-1,4-thiazinan-4-yl)methyl]benzamide] | 2 | 97.0 | 5.01 | 97.6 | 3.98 | 49.2 | 1.26 | 98.6 | 100 | 111.1 | 15.8 | 89.9
8 | CC1CN(Cc2cccc(C(=O)Nc3ccc(-c4nc(C5CC5)n[nH]4)cc3)c2)CCS1(=O)=O (stereo not shown) [Example 1-2, N-[4-(3-Cyclopropyl-1H-1,2,4-triazol-5-yl)phenyl]-3-[(2-methyl-1,1-dioxo-1,4-thiazinan-4-yl)methyl]benzamide] | 15.8 | 97.3 | 126 | 95.6 | 200 | 63.3 |  |  | 200 | 85 | 20 | 78.2
9 | CS(=O)(=O)c1ccc(C(=O)Nc2ccc(Cl)c(-c3ccccn3)c2)c(Cl)c1 [Vismodegib, reference compound] |  |  |  |  |  |  |  | 100.1 |  | 45.4 |  | 92.6
10 | O=C(Nc1ccc(-c2nc(C3CC3)n[nH]2)cc1)c1cc(Cl)cc(CN2CCS(=O)(=O)CC2)c1 [Example 2-4, 3-Chloro-N-[4-(5-cyclopropyl-1H-1,2,4-triazol-3-yl)phenyl]-5-[(1,1-dioxo-1,4-thiazinan-4-yl)methyl]benzamide] | 5.01 | 95.4 | 39.8 | 95.4 | 39.8 | 60.2 |  |  | 631 | 76.5 | 5.01 | 87.8
11 | O=C(Nc1ccc(-c2nc(C3CC3)n[nH]2)cc1)c1cc(F)cc(CN2CCS(=O)(=O)CC2)c1 [Example 2-2, N-[4-(5-Cyclopropyl-1H-1,2,4-triazol-3-yl)phenyl]-3-[(1,1-dioxo-1,4-thiazinan-4-yl)methyl]-5-fluorobenzamide] | 10 | 95.8 | 126 | 91.3 | 126 | 67.2 |  |  | 794 | 73.6 | 7.94 | 79.1
12 | O=C(Nc1ccc(-c2nc(CCc3ccccc3)n[nH]2)cc1)c1cccc(CN2CCS(=O)(=O)CC2)c1 [Example 3-31, 3-[(1,1-Dioxo-1,4-thiazinan-4-yl)methyl]-N-[4-[3-(2-phenylethyl)-1H-1,2,4-triazol-5-yl]phenyl]benzamide] | 31.6 | 98.6 | 251 | 97.2 | 79.4 | 64.1 |  |  |  |  |  | 
